Test results from ChEMBL document CHEMBL1201862, “PubChem BioAssay data set” (2004).
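All cell lines were grown in 96-well plates and treated with compound for 48 hours. The concentration for 50% growth inhibition is given as GI50.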 Calls of active or inactive are those of the source. Cut-off read from the data, not from the text of the source: active = GI50 up to about 1.1 µM and inactive = higher.

Legend:
Assay in all cases: DTP human tumour cell line panel, 48 h
786-0 = tested on: 786-0
A498 = tested on: A498
A549 = tested on: A549
ACHN = tested on: ACHN
CAKI-1 = tested on: CAKI-1
CCRF-CEM = tested on: CCRF-CEM
COLO 205 = tested on: COLO 205
DLD-1 = tested on: DLD-1
DMS-114 = tested on: DMS-114
DMS-273 = tested on: DMS-273
EKVX = tested on: EKVX
HCC 2998 = tested on: HCC 2998
HL-60 = tested on: HL-60
HOP-62 = tested on: HOP-62
HOP-92 = tested on: HOP-92
HT-29 = tested on: HT-29
IGROV-1 = tested on: IGROV-1
K562 = tested on: K562
KM-20L2 = tested on: KM-20L2
KM12 = tested on: KM12
LOX IMVI = tested on: LOX IMVI
LXFL 529 = tested on: LXFL 529
M14 = tested on: M14
M19-MEL = tested on: M19-MEL
MOLT-4 = tested on: MOLT-4
Malme-3M = tested on: Malme-3M
NCI-H23 = tested on: NCI-H23
NCI-H460 = tested on: NCI-H460
NCI-H522 = tested on: NCI-H522
OVCAR-3 = tested on: OVCAR-3
OVCAR-4 = tested on: OVCAR-4
OVCAR-5 = tested on: OVCAR-5
OVCAR-8 = tested on: OVCAR-8
RPMI-8226 = tested on: RPMI-8226
RXF 393 = tested on: RXF 393
RXF 631 = tested on: RXF 631
SF-268 = tested on: SF-268
SF-295 = tested on: SF-295
SF-539 = tested on: SF-539
SK-MEL-28 = tested on: SK-MEL-28
SK-MEL-2 = tested on: SK-MEL-2
SK-MEL-5 = tested on: SK-MEL-5
SK-OV-3 = tested on: SK-OV-3
SN12C = tested on: SN12C
SNB-19 = tested on: SNB-19
SNB-75 = tested on: SNB-75
SNB-78 = tested on: SNB-78
SW-620 = tested on: SW-620
TK-10 = tested on: TK-10
U-251 = tested on: U-251
UACC-257 = tested on: UACC-257
UACC-62 = tested on: UACC-62
UO-31 = tested on: UO-31
XF498 = tested on: XF498

Measured: GI50

COc1ccc(C(=O)O[C@H]2[C@@H]3C=CO[C@@H](OC4OC(CO)C(O)C(O)C4O)[C@@H]3[C@@]3(CO)O[C@@H]23)cc1O (some centres undefined)
inactive: 786-0 > 100 µM | A498 > 100 µM | A549 > 100 µM | ACHN > 100 µM | CAKI-1 > 100 µM | CCRF-CEM > 100 µM | COLO 205 > 100 µM | DLD-1 > 100 µM | DMS-114 > 100 µM | DMS-273 > 100 µM | EKVX > 100 µM | HCC 2998 > 100 µM | HL-60 > 100 µM | HOP-62 > 100 µM | HOP-92 > 100 µM | HT-29 > 100 µM | IGROV-1 > 100 µM | K562 > 100 µM | KM-20L2 > 100 µM | KM12 > 100 µM | LOX IMVI > 100 µM | LXFL 529 > 100 µM | M14 > 100 µM | M19-MEL > 100 µM | MOLT-4 > 100 µM | Malme-3M > 100 µM | NCI-H23 > 100 µM | NCI-H460 > 100 µM | NCI-H522 > 100 µM | OVCAR-3 > 100 µM | OVCAR-4 > 100 µM | OVCAR-5 > 100 µM | OVCAR-8 > 100 µM | RPMI-8226 > 100 µM | RXF 393 > 100 µM | RXF 631 > 100 µM | SF-268 > 100 µM | SF-295 > 100 µM | SF-539 > 100 µM | SK-MEL-28 > 100 µM | SK-MEL-2 > 100 µM | SK-MEL-5 > 100 µM | SK-OV-3 > 100 µM | SN12C > 100 µM | SNB-19 > 100 µM | SNB-75 > 100 µM | SNB-78 > 100 µM | SW-620 > 100 µM | TK-10 > 100 µM | U-251 > 100 µM | UACC-257 > 100 µM | UACC-62 > 100 µM | UO-31 > 100 µM | XF498 > 100 µM
